The results in this text go back to paper PMC10223019, “Preclinical Evaluation of a PSMA-Targeting Homodimer with an Optimized Linker for Imaging of Prostate Cancer” (Molecules, 2023).

Data set [1] deals with T1, Recombinant human PSMA (rhPSMA) (Homo sapiens, UniProt Q04609).
T1 construct: purchased R&D systems, Abingdon, UK
In words: NAALADase assay (competitive inhibition, Amplex Red glutamate readout). Particulars: for IC50: rhPSMA, substrate Ac-Asp-Glu, 1 h 37 °C. In kind it is biochemical. The method, then:
Recombinant human PSMA (rhPSMA; R&D systems, Abingdon, UK) was diluted in assay buffer (50 mM HEPES, 0.1 M NaCl, pH 7.5) to 0.4 μg/mL. The substrate Ac–Asp–Glu (40 μM) was mixed with the synthesized derivatives and with a reference (PSMA-617) at concentrations ranging from 10^−6 to 10^−13 M in a final volume of 12.5 μL assay buffer. The mixtures were combined with 12.5 μL of the rhPSMA solution and incubated for 1 h at 37 °C in 384-well black polystyrene microplates (ThermoFisher, Bleiswijk, The Netherlands). The amount of glutamate released was measured by incubating with 25 μL of a working solution of the Amplex Red glutamic acid kit (ThermoFisher, Bleiswijk, The Netherlands) at 37 °C for 30 min. Fluorescence was measured with a HIDEX Sense Optical System (Goedereede, The Netherlands) with excitation at 535 nm and emission at 590 nm. Data were normalized and analyzed using a one-site total binding regression with GraphPad Prism v9.0 (GraphPad Software, San Diego, CA, USA).

A short description of data set [2]: Stability in mouse serum, radio-HPLC. In kind it is in vitro ADME. The settings on record: 24 h post-incubation, 37 °C, indium-111 labeled, intact fraction. Here is the method: [^111In]In-22 or [^111In]In-30 (~35 MBq, 70 µL) was mixed with 330 μL of mouse serum and incubated at 37 °C for up to 24 h. After 1, 4, and 24 h incubation, 50 μL of the mouse serum solution was added to a separate vial containing 50 µL of acetonitrile. The sample was centrifuged at 5000× g for 20 min. The supernatant was analyzed by radio-HPLC.

The nature of data set [3]: Stability in phosphate-buffered saline (PBS), radio-HPLC. The settings on record: 24 h post-incubation, 37 °C, indium-111 labeled, intact fraction. In kind it is physicochemical. The method, then: [^111In]In-22 or [^111In]In-30 (~10 MBq, 20 µL) was mixed with 80 μL of PBS (0.01 M, pH 7.4) and incubated at 37 °C for up to 24 h. A sample of the PBS solution was loaded directly onto the radio-HPLC at 1, 4, and 24 h post-incubation.

Data set [4] in a line: LogD7.4 by shake-flask method (PBS/n-octanol). Type of data set: physicochemical. Particulars: PBS/n-octanol (1:1 v/v); LogD7.4, PBS pH 7.4/n-octanol, indium-111 labeled compound; read-out: LogD. The method, then:
The distribution coefficients (LogD7.4 values) were determined by a shake-flask method, in which 2 μL (~0.5 MBq) of the labeling solution ([^111In]In-22 or [^111In]In-30) were added to an Eppendorf tube containing 1 mL of PBS (0.01 M, pH 7.4)/n-octanol (v/v, 1:1). After vigorous vortexing, the solution was centrifuged at 2500× g for 15 min for phase separation. Samples (3 × 10 μL) of the two phases were taken out and measured in a gamma counter. LogD7.4 values were calculated by using the following equation: LogD7.4 = log [(counts in octanol phase)/(counts in aqueous phase)] and the experiment was performed in triplicate.

Data set [5] relates to BALB/c nude mice bearing LS174T PSMA-positive tumor xenografts. In words: Ex vivo biodistribution studies. Particulars: 24 h p.i. In kind it is in vivo. Here is the method: Animal experiments were performed in 8–10 weeks old male BALB/c nude mice (Janvier Labs, Le Genest-Saint-Isle, France). Animals were housed in individually ventilated cages (Blue line IVC, 4 mice per cage) under nonsterile standard conditions with cage enrichment present and free access to chlorophyll-free animal chow (Sniff GmbH, Soest, Germany) and water and acclimated for 1 week before experiments. Mice were subcutaneously inoculated with 4.0 × 10^6 LS174T cells in the right flank, diluted in 100 μL of cell suspension. Seven days after tumor cell inoculation, when xenografts were approximately 0.2–0.3 cm^3, the tracers were injected intravenously via the tail vein. All experiments were approved by the institutional Animal Welfare Committee and were conducted in accordance with the guidelines of the Revised Dutch Act on Animal Experimentation (WOD).
Mice were intravenously injected with ~1 nmol of either [^111In]In-PSMA-617, [^111In]In-22 or [^111In]In-30 with molar activity of 5 MBq/nmol for ex vivo biodistribution studies. Mice (n = 4/timepoint) were euthanized by cervical dislocation at 1, 4, and 24 h p.i. A block group was included, and mice were euthanized at 4 h p.i. Organs were collected in tubes and counted in the gamma counter, where the calibration factor was determined by measuring different known activities of indium-111.

Data set [6] deals with PSMA expressing LS174T cells. In words: Internalization and cell uptake assay. Type of data set: cell-based, human. Particulars: 2 h 37 °C. Here is the method:
LS174T human colon carcinoma cells transfected with human PSMA were obtained from Dr. Sandra Heskamp (Radboud UMC, Nijmegen). Cells were cultured in RPMI-1640 media supplemented with 2 mM glutamine, 10% fetal bovine serum (FBS) and 0.3 mg/mL G418 (Geneticin, Sigma Aldrich, St. Louis, MO, USA).
Cells were seeded (1.2 × 10^6 cells/well) and cultured to confluency for 24 h prior to experiments. We prepared 10^−9 M solutions of [^111In]In-PSMA-617, [^111In]In-22, and [^111In]In-30 in internalization media (RPMI, 20 mM HEPES, 1% BSA, pH 7.4). The media were removed from each well, and they were rinsed twice with PBS at rt. 2 mL of the radioactive compound was then added to each well and incubated at 37 °C for 2 h. For the internalization assay, the media containing radioactive compound were removed, and each well was washed twice with cold PBS. A total of 1 mL of Glycine buffer (50 mM glycine, 100 mM NaCl, pH 2.8) was added immediately and incubated for 10 min at rt. The glycine wash was then collected into counting tubes (membrane-bound fraction). An extra wash was performed and collected in the same tubes. A total of 1 mL of NaOH (1 M) was then added to each tube and left for 15 min at rt. The lysate (internalized fraction) was then collected in separate counting tubes, together with one extra NaOH wash. Data were normalized to 1,000,000 cells and percentage added dose.

“And” between values parts separate entries of the source, which are not always exact repeats. Identical values can stand only once. Some results are limits rather than exact numbers.

T1 sequence (Q04609 whole entry): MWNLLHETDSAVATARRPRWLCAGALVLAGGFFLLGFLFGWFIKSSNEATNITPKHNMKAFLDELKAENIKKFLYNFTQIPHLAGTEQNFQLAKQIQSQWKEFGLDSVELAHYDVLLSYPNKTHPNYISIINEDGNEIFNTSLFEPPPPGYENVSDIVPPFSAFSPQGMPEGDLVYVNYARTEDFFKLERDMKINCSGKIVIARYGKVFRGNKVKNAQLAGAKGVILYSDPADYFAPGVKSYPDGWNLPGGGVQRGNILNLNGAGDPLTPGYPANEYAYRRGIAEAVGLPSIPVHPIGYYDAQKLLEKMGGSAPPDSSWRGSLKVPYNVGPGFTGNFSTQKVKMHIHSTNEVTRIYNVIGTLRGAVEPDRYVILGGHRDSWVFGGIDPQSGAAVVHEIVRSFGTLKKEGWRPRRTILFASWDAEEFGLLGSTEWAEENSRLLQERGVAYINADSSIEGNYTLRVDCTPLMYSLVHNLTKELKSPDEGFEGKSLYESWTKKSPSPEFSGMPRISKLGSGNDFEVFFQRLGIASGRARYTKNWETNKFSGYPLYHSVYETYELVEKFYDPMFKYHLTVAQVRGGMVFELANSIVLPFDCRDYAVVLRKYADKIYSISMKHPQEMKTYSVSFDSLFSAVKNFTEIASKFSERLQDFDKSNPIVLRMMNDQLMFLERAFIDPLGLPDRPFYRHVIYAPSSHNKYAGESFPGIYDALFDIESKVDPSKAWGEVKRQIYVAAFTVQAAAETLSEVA

For `NCCCCCC(=O)NCCCCC(NC(=O)NC(CCC(=O)O)C(=O)O)C(=O)O` (centres unmarked) [Compound 1], the half-maximal inhibitory concentration (IC50) in data set [1] is 9.86 ± 1.7 nM.

On to `NCCC(=O)NCCCCCC(=O)NCCCC[C@H](NC(=O)N[C@@H](CCC(=O)O)C(=O)O)C(=O)O` [Compound 2, EuK(Ahx-Ala)], for which the IC50 in data set [1] was 23.1 ± 3.1 nM.

Turning to `NCCC(=O)NCCC(=O)NCCCCCC(=O)NCCCC[C@H](NC(=O)N[C@@H](CCC(=O)O)C(=O)O)C(=O)O` [Compound 3], the IC50 in data set [1] was found to be 20.1 ± 2.7 nM.

As to `N[C@@H](Cc1ccccc1)C(=O)NCCC(=O)NCCCCCC(=O)NCCCC[C@H](NC(=O)N[C@@H](CCC(=O)O)C(=O)O)C(=O)O` [Compound 4], in data set [1], the IC50 amounted to 2.86 ± 0.3 nM.

As for `CC(C)C[C@H](N)[C@@H](O)CC(=O)NCCC(=O)NCCCCCC(=O)NCCCC[C@H](NC(=O)N[C@@H](CCC(=O)O)C(=O)O)C(=O)O` [Compound 5], the half-maximal inhibitory concentration (IC50) in data set [1] is 10.1 ± 3.2 nM.

For the molecule `N[C@@H](Cc1ccccc1)C(=O)NCCCCCC(=O)NCCCC[C@H](NC(=O)N[C@@H](CCC(=O)O)C(=O)O)C(=O)O` [Compound 6], the 50% inhibitory concentration (IC50) in data set [1] is 3.17 ± 0.5 nM.

For the molecule `N[C@@H](Cc1ccccc1)C(=O)N[C@@H](Cc1ccccc1)C(=O)NCCCCCC(=O)NCCCC[C@H](NC(=O)N[C@@H](CCC(=O)O)C(=O)O)C(=O)O` [Compound 7], the half-inhibitory concentration (IC50) in data set [1] was 1.72 ± 0.4 nM.

Regarding `NCCC(=O)N[C@@H](Cc1ccccc1)C(=O)NCCCCCC(=O)NCCCC[C@H](NC(=O)N[C@@H](CCC(=O)O)C(=O)O)C(=O)O` [Compound 8], the half-inhibitory concentration (IC50) in data set [1] was 4.53 ± 0.4 nM.

In the case of `CC(C)C[C@H](N)[C@@H](O)CC(=O)N[C@@H](Cc1ccccc1)C(=O)NCCCCCC(=O)NCCCC[C@H](NC(=O)N[C@@H](CCC(=O)O)C(=O)O)C(=O)O` [Compound 9], in data set [1], the IC50 was 7 ± 0.3 nM.

As for `CC(C)C[C@H](N)[C@@H](O)CC(=O)NCCCCCC(=O)NCCCC[C@H](NC(=O)N[C@@H](CCC(=O)O)C(=O)O)C(=O)O` [Compound 10], the IC50 in data set [1] came to 6.83 ± 0.5 nM.

As to `CC(C)C[C@H](NC(=O)C[C@H](O)[C@@H](N)CC(C)C)[C@@H](O)CC(=O)NCCCCCC(=O)NCCCC[C@H](NC(=O)N[C@@H](CCC(=O)O)C(=O)O)C(=O)O` [Compound 11], in data set [1], the IC50 was 6.5 ± 0.4 nM.

`CC(C)C[C@H](NC(=O)CCN)[C@@H](O)CC(=O)NCCCCCC(=O)NCCCC[C@H](NC(=O)N[C@@H](CCC(=O)O)C(=O)O)C(=O)O` [Compound 13]: the 50% inhibitory concentration (IC50) in data set [1] stood at 6.15 ± 0.6 nM.

On to `CC(C)C[C@H](NC(=O)[C@H](Cc1ccccc1)NC(=O)CN1CCN(CC(=O)O)CCN(CC(=O)O)CCN(CC(=O)O)CC1)[C@@H](O)CC(=O)NCCCCCC(=O)NCCCC[C@H](NC(=O)N[C@@H](CCC(=O)O)C(=O)O)C(=O)O` [Compound 14], for which, in data set [1], the IC50 came to 1.73 ± 0.7 nM.

`CC(C)C[C@H](NC(=O)[C@H](Cc1ccccc1)NC(=O)[C@@H](N)CN)[C@@H](O)CC(=O)NCCCCCC(=O)NCCCC[C@H](NC(=O)N[C@@H](CCC(=O)O)C(=O)O)C(=O)O` [Compound 15]: the half-maximal inhibitory concentration (IC50) in data set [1] was determined as 2.1 ± 0.4 nM.

Take `CC(C)C[C@H](NC(=O)[C@H](Cc1ccccc1)NC(=O)[C@@H](N)CC(=O)O)[C@@H](O)CC(=O)NCCCCCC(=O)NCCCC[C@H](NC(=O)N[C@@H](CCC(=O)O)C(=O)O)C(=O)O` [Compound 16, EuK(Ahx-Sta-Phe-Asp)]: the concentration for half-maximal inhibition (IC50) in data set [1] was found to be 1.03 ± 0.5 nM.

With `CC(C)C[C@H](NC(=O)[C@H](Cc1ccccc1)NC(=O)[C@@H](N)Cc1ccc(O)cc1)[C@@H](O)CC(=O)NCCCCCC(=O)NCCCC[C@H](NC(=O)N[C@@H](CCC(=O)O)C(=O)O)C(=O)O` [Compound 17], the IC50 in data set [1] came to 2.62 ± 0.4 nM.

With `CC(C)C[C@H](NC(=O)[C@H](Cc1ccccc1)NC(=O)[C@@H](N)Cc1ccccc1)[C@@H](O)CC(=O)NCCCCCC(=O)NCCCC[C@H](NC(=O)N[C@@H](CCC(=O)O)C(=O)O)C(=O)O` [Compound 18], the IC50 in data set [1] was found to be 3.33 ± 0.4 nM.

`CC(C)C[C@H](NC(=O)[C@H](Cc1ccccc1)NC(=O)C[C@H](O)[C@@H](N)CC(C)C)[C@@H](O)CC(=O)NCCCCCC(=O)NCCCC[C@H](NC(=O)N[C@@H](CCC(=O)O)C(=O)O)C(=O)O` [Compound 19]: in data set [1], the concentration for half-maximal inhibition (IC50) is 1.22 ± 0.3 nM.

On to `CC(C)C[C@H](NC(=O)[C@H](Cc1ccccc1)NC(=O)[C@H](CC(=O)O)NC(=O)CCC(C(=O)O)N1CCN(CC(=O)O)CCN(CC(=O)O)CCN(CC(=O)O)CC1)[C@@H](O)CC(=O)NCCCCCC(=O)NCCCC[C@H](NC(=O)N[C@@H](CCC(=O)O)C(=O)O)C(=O)O` (stereo partly drawn) [Compound 22, EuK(Ahx-Sta-L-Phe-Asp-DOTA-GA)], for which, in data set [1] (comparison in words), the “IC50 of 22 (L-Phe) relative to 23 (D-Phe)” value is listed as “two-fold better”. In addition, the IC50 in data set [1] was 1.66 nM and 1 to 1.6 nM. For the same molecule, the “Stability in Mouse Serum (%)” value in data set [2] is greater than 90%. In addition, the “Stability in PBS (%)” value in data set [3] is reported as greater than 90%. In addition, in data set [4], the logD was -3.26 ± 0.05.

Regarding `CC(C)C[C@H](NC(=O)[C@@H](Cc1ccccc1)NC(=O)[C@H](CC(=O)O)NC(=O)CCC(C(=O)O)N1CCN(CC(=O)O)CCN(CC(=O)O)CCN(CC(=O)O)CC1)[C@@H](O)CC(=O)NCCCCCC(=O)NCCCC[C@H](NC(=O)N[C@@H](CCC(=O)O)C(=O)O)C(=O)O` (stereo partly drawn) [Compound 23, EuK(Ahx-Sta-D-Phe-Asp-DOTA-GA)], in data set [4], the logD is -3.21 ± 0.07.

Consider `O=C(O)CC[C@H](NC(=O)N[C@@H](CCCCNC(=O)[C@H](Cc1ccc2ccccc2c1)NC(=O)[C@H]1CC[C@H](CNC(=O)CN2CCN(CC(=O)O)CCN(CC(=O)O)CCN(CC(=O)O)CC2)CC1)C(=O)O)C(=O)O` [PSMA-617, reference compound], for which, in data set [1], the IC50 came to 0.9 ± 0.3 nM. In addition, in data set [5], the “Tumor-to-muscle (T/M) ratio” value came out at 26. Besides, the “Internalized fraction as share of total uptake (internalization)” value in data set [6] was 34.1%.

With `CC(C)C[C@H](NC(=O)[C@@H](Cc1ccccc1)NC(=O)[C@H](CC(=O)O)NC(=O)CCC(C(=O)O)N1CCN(CC(=O)[O-])CCN(CC(=O)[O-])CCN(CC(=O)[O-])CC1)[C@@H](O)CC(=O)NCCCCCC(=O)NCCCC[C@H](NC(=O)N[C@@H](CCC(=O)O)C(=O)O)C(=O)O.[111In+3]` (some centres unmarked) [[^111In]In-23], in data set [2], the “Stability in Mouse Serum (%)” value was greater than 90%. In data set [3], the “Stability in PBS (%)” value was greater than 90%.
